Legend:
pig intestine = assay: in situ ischaemia reperfusion model in pigs, HRP flow in jejunum segments; assay type: in vivo; conditions: 5.6 g/l in lumen during ischaemia, pig under full narcosis, caudal jejunum, FIG. 5
Method: The figure relates to experiments with a pig under full narcosis, in which segments of the caudal section of the jejunum were taken. The effect of 5.6 g/l dextran (70 kD)(D) in the in situ ischaemia reperfusion model in pigs as a function of the duration of ischaemia was determined in comparison with control (C) where no dextran was introduced into the lumen during ischaemia.

[1] = tested on: guinea pig intestinal epithelium; assay: HRP flow over guinea pig intestinal epithelium in Ussing chamber, tight junctions opened by caprate; conditions: in vitro, FIG. 2
Method: Use was made of a model set-up for determination of the effect of the polysaccharides used.
A test animal, such as a rat or guinea pig, was brought under narcosis. The stomach wall was then opened and a piece of the ileum tied off. The intestinal tissue was removed and stripped of layers of muscle. The preparation thus obtained was then stretched between two compartments through which oxygenated solutions flowed (FIG. 1). The preparation was treated either with buffer (control or blank) or caprate in buffer in order to open the tight junctions (100% permeability) or with the combination of caprate and a certain concentration of polysaccharide in buffer. As a measure of the permeability the transport of HRP (horseradish peroxidase) over the preparation was determined in accordance with known methods.
The in vitro effect of dextran (70 kD) on the increased HRP flow caused by caprate in a guinea pig intestinal epithelium is shown in FIG. 2.

[2] = tested on: duodenum biopsies of a child suffering from microvillus inclusion disease (MVID); assay: Permeability to HRP of duodenal suction biopsies of a microvillus inclusion disease patient in Ussing chamber; set-up: species or system human; conditions: after adding 4.2 g/l to luminal compartment
Source text: Suction biopsies were taken from the duodenum of a child suffering from microvillus inclusion disease (MVID).

dextran [dextran (70 kD)]
HRP flow in the pig intestine increased by ischaemia, compared with control (pig intestine): significant fall
effect on the increased HRP flow caused by caprate [1]: inhibition of the effects of caprate
HRP in the paracellular spaces or tight junctions by electron microscopy [2]: No further HRP could be detected
